Source: ChEMBL document CHEMBL1127125, “Synthesis and testing of substituted phenylthioribose analogs against Klebsiella pneumoniae” (Bioorg Med Chem Lett, 1993)
≈ marks a conversion by molar mass, not a printed value. Each block holds one molecule with its values, some of them ahead of it.

Legend:
[1] = tested on: Klebsiella pneumoniae; test: Compound was tested for its ability to inhibit the growth of a clinical strain of Klebsiella pneumoniae at 0.01 ng/mL; format: functional, organism-based
[2] = tested on: Klebsiella pneumoniae; test: Minimum inhibitory concentration of compound for its inhibitory activity against Klebsiella pneumoniae growth at 2.4 ug/mL; format: functional
[3] = tested on: Klebsiella pneumoniae; test: Minimum inhibitory concentration of compound for its inhibitory activity against Klebsiella pneumoniae growth at 0.002 ug/mL; format: functional
[4] = tested on: Plasmodium falciparum; test: Inhibition of Plasmodium falciparum; format: functional, organism-based
[5] = tested on: Klebsiella pneumoniae; test: Compound was tested for its ability to inhibit the growth of a clinical strain of Klebsiella pneumoniae; format: functional, organism-based
[6] = Compound was tested for its ability to inhibit the growth of a clinical strain Ochromonas malhamensis; format: functional
[7] = tested on: Klebsiella pneumoniae; test: Minimum inhibitory concentration of compound for its inhibitory activity against Klebsiella pneumoniae growth at 2.60 ug/mL; format: functional
[8] = tested on: Klebsiella pneumoniae; test: Minimum inhibitory concentration of compound for its inhibitory activity against Klebsiella pneumoniae growth at 20.7 ug/mL; format: functional
[9] = tested on: Klebsiella pneumoniae; test: Concentration required to inhibit the growth of a clinical strain of Klebsiella pneumoniae by 50%; format: functional, organism-based

MIC [2]: 7.5 µM (≈ 2.41 µg/mL)
Structure (SMILES): OC1O[C@H](CSc2ccc(Br)cc2)[C@@H](O)[C@H]1O (stereo partly specified)
IC50 [1]: 375 nM

MIC [3]: 0.005 µM (≈ 0.00184 µg/mL)
Structure (SMILES): OC1O[C@H](CSc2ccc(I)cc2)[C@@H](O)[C@H]1O (stereo partly specified)

IC50 [4]: ~300 µM
Structure (SMILES): CCSC[C@H]1OC(O)[C@H](O)[C@@H]1O (stereo partly specified)
IC50 [5]: ~15000 µM
IC50 [6]: ~75 µM

MIC [7]: 10 µM (≈ 2.6 µg/mL)
Structure (SMILES): OC1O[C@H](CSc2ccc(F)cc2)[C@@H](O)[C@H]1O (stereo partly specified)
IC50 [1]: 0.05 nM

MIC [8]: 75 µM (≈ 20.8 µg/mL)
Structure (SMILES): OC1O[C@H](CSc2ccc(Cl)cc2)[C@@H](O)[C@H]1O (stereo partly specified)
IC50 [1]: 500 nM

Structure (SMILES): OC1O[C@H](CSc2ccc(C(F)(F)F)cc2)[C@@H](O)[C@H]1O (stereo partly specified)
IC50 [9]: 0.04 µM
